Laboratory results as given in US20180368410A1, “MICROBIOCIDAL OXADIAZOLE DERIVATIVES” (SYNGENTA PARTICIPATIONS AG, priority 2015, published 2018).

Columns and labels:
[1] = system: Puccinia recondita f. Sp. Tritici; assay: Puccinia recondita f. sp. tritici / wheat / leaf disc preventative (brown rust); format: in vivo, Puccinia recondita f. sp. tritici on wheat cv. Kanzler; settings: foliar, 200 ppm in the applied formulation, inoculated 1 day after application, assessed 7 to 9 days after application, vs untreated control leaf disks, read-out: disease control
Procedure, shortened: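 Wheat cv. Kanzler leaf segments on agar were sprayed with compound (DMSO stock diluted with 0.025% Tween20) 1 day before inoculation with spores. Segments were held at 19 °C, 75% rh, 12 h light/dark. Percent disease control versus untreated was scored 7–9 days after application.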

[2] = system: Glomerella Lacenarium (Colletotrichum lacenarium); assay: Glomerella lagenarium (Colletotrichum lagenarium) liquid culture / cucumber / preventative (anthracnose); format: cell-based; settings: 20 ppm in the applied formulation, liquid culture in PDB, 24° C., inhibition of growth measured photometrically 3 to 4 days after application, vs untreated control, read-out: disease control
Procedure, shortened: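 Spore-based broth assay: conidia mixed into PDB meet compound from a DMSO solution in 96-well format, incubate at 24° C., then inhibition of growth is determined by photometry 3–4 days later relative to the untreated check.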

Uromyces viciae-Fabael = assay: Uromyces viciae-fabae / field bean / leaf disc preventative (faba-bean rust); format: in vivo, Uromyces viciae-fabae on field bean; settings: foliar, 288 h, 100 ppm in the applied formulation, inoculated two hours after application, assessed 12 days after application, vs untreated control leaf discs, read-out: disease control
Description: Leaf disks or leaf segments of various plant species are cut from plants grown in a greenhouse. The cut leaf disks or segments are placed in multiwell plates (24-well format) onto water agar. The leaf disks are sprayed with a test solution before (preventative) or after (curative) inoculation. Compounds to be tested are prepared as DMSO solutions (max. 10 mg/ml) which are diluted to the appropriate concentration with 0.025% Tween20 just before spraying. The inoculated leaf disks or segments are incubated under defined conditions (temperature, relative humidity, light, etc.) according to the respective test system. A single evaluation of disease level is carried out 3 to 14 days after inoculation, depending on the pathosystem. Percent disease control relative to the untreated check leaf disks or segments is then calculated.
Field bean leaf discs are placed on water agar in multiwell plates (96-well format) and 10 μl of the formulated test compound diluted in acetone and a spreader pipetted onto the leaf disc. Two hours after application leaf discs are inoculated by spraying a spore suspension on the lower leaf surface. The leaf discs are incubated in a climate cabinet at 22° C. with 18 hour day and 70% relative humidity. The activity of a compound is assessed as percent disease control compared to untreated when an appropriate level of disease damage appears in untreated check leaf disks (12 days after application).
The following compounds at 100 ppm in the applied formulation give at least 80% disease control in this test when compared to untreated control leaf discs under the same conditions, which show extensive disease development.

[3] = system: Puccinia recondita f. Sp. Triticil; assay: Puccinia recondita f. sp. tritici / wheat / leaf disc curative (brown rust); format: in vivo, Puccinia recondita f. sp. tritici on wheat cv. Kanzler; settings: foliar, 200 ppm in the applied formulation, applied 1 day after inoculation, assessed 6 to 8 days after application, vs untreated control leaf disks, read-out: disease control
Procedure, shortened: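 Compounds, prepared from DMSO solutions of at most 10 mg/ml and diluted just before spraying, are applied curatively to inoculated Kanzler wheat leaf segments. Segments are incubated at 19° C and 75% RH in a climate cabinet; disease control relative to untreated is evaluated 6 to 8 days later.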

Phakopsora pachyrhizi = Phakopsora pachyrhizi / soybean / leaf disc preventative (Asian soybean rust); format: in vivo, Phakopsora pachyrhizi on soybean; settings: foliar, 200 ppm in the applied formulation, inoculated one day after application, assessed 12 to 14 days after application, vs untreated control leaf disks, read-out: disease control
Procedure, shortened: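 Read-out is percent disease control relative to untreated check discs, assessed once untreated discs show adequate disease, 12 to 14 days after application. Compounds, tested at 200 ppm in the applied formulation, are sprayed onto soybean leaf discs one day before inoculation with a spore suspension.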

| SMILES | pest or weed control at 200 ppm [1] [%] | inhibition of growth at 20 ppm [2] [%] | pest or weed control at 100 ppm (Uromyces viciae-Fabael) [%] | melting point [°C] | pest or weed control at 200 ppm [3] [%] | pest or weed control at 200 ppm (Phakopsora pachyrhizi) [%] |
| --- | --- | --- | --- | --- | --- | --- |
| CC1(C(=O)NCc2ccc(-c3noc(C(F)(F)F)n3)cc2)CC1(Cl)Cl (stereo not shown) [Compound 1.20, 2,2-dichloro-1-methyl-N-[[4-[5-(trifluoromethyl)-1,2,4-oxadiazol-3-yl]phenyl]methyl] cyclopropanecarboxamide] | ≥ 80 | ≥ 80 | ≥ 80 | – | – | – |
| O=C(NCc1ccc(-c2noc(C(F)(F)F)n2)cc1)C1CC1c1ccccc1 (stereo not shown) [Compound 1.15, 2-phenyl-N-[[4-[5-(trifluoromethyl)-1,2,4-oxadiazol-3-yl]phenyl]methyl] cyclopropanecarboxamide] | ≥ 80 | ≥ 80 | ≥ 80 | – | – | – |
| O=C(NCc1ccc(-c2noc(C(F)(F)F)n2)cc1)c1ccc(Cl)cc1 [Compound 1.36, 4-chloro-N-[[4-[5-(trifluoromethyl)-1,2,4-oxadiazol-3-yl]phenyl]methyl]benzamide] | ≥ 80 | ≥ 80 | ≥ 80 | – | – | – |
| O=C(NCc1ccc(-c2noc(C(F)(F)F)n2)nc1)C1CCCO1 (stereo not shown) [Compound 1.94, N-[[6-[5-(trifluoromethyl)-1,2,4-oxadiazol-3-yl]-3-pyridyl]methyl] tetrahydrofuran-2-carboxamide] | – | – | – | 84 to 88 | ≥ 80 | – |
| O=C(NCc1ccc(-c2noc(C(F)(F)F)n2)cc1)c1ccccc1 [Compound 1.40, N-[[4-[5-(trifluoromethyl)-1,2,4-oxadiazol-3-yl]phenyl]methyl]benzamide] | ≥ 80 | ≥ 80 | ≥ 80 | – | ≥ 80 | – |
| O=C(NCc1ccc(-c2noc(C(F)(F)F)n2)nc1)c1ccccc1Cl [Compound 1.95, 2-chloro-N-[[6-[5-(trifluoromethyl)-1,2,4-oxadiazol-3-yl]-3-pyridyl]methyl] benzamide] | ≥ 80 | – | – | 106 to 113 | – | – |
| O=C(Cc1ccccc1)NCc1ccc(-c2noc(C(F)(F)F)n2)cc1 [Compound 1.26, 2-phenyl-N-[[4-[5-(trifluoromethyl)-1,2,4-oxadiazol-3-yl]phenyl]methyl]acetamide] | ≥ 80 | ≥ 80 | ≥ 80 | – | ≥ 80 | ≥ 80 |
| COc1ccccc1CC(=O)NCc1ccc(-c2noc(C(F)(F)F)n2)cc1 [Compound 1.23, 2-(2-methoxyphenyl)-N-[[4-[5-(trifluoromethyl)-1,2,4-oxadiazol-3-yl]phenyl]methyl]acetamide] | ≥ 80 | – | ≥ 80 | – | ≥ 80 | – |
| N#Cc1ccc(CC(=O)NCc2ccc(-c3noc(C(F)(F)F)n3)cc2)cc1 [Compound 1.30, 2-(4-cyanophenyl)-N-[[4-[5-(trifluoromethyl)-1,2,4-oxadiazol-3-yl]phenyl]methyl]acetamide] | ≥ 80 | – | ≥ 80 | – | – | ≥ 80 |
| O=C(NCc1ccc(-c2noc(C(F)(F)F)n2)cc1)C1(c2ccccc2)CC1 [Compound 1.14, 1-phenyl-N-[[4-[5-(trifluoromethyl)-1,2,4-oxadiazol-3-yl]phenyl]methyl] cyclopropanecarboxamide] | ≥ 80 | ≥ 80 | ≥ 80 | – | – | – |
| O=C(NCc1ccc(-c2noc(C(F)(F)F)n2)cc1)C1(c2ccc(Cl)cc2)CC1 [Compound 1.39, 1-(4-chlorophenyl)-N-[[4-[5-(trifluoromethyl)-1,2,4-oxadiazol-3-yl]phenyl]methyl] cyclopropanecarboxamide] | – | – | ≥ 80 | – | – | ≥ 80 |
| O=C(CC1CC1(F)F)NCc1ccc(-c2noc(C(F)(F)F)n2)cc1 (stereo not shown) [Compound 1.32, 2-(2,2-difluorocyclopropyl)-N-[[4-[5-(trifluoromethyl)-1,2,4-oxadiazol-3-yl]phenyl]methyl]acetamide] | ≥ 80 | ≥ 80 | ≥ 80 | – | ≥ 80 | ≥ 80 |
| O=C(Cc1ccccc1Cl)NCc1ccc(-c2noc(C(F)(F)F)n2)cc1 [Compound 1.12, 2-(2-chlorophenyl)-N-[[4-[5-(trifluoromethyl)-1,2,4-oxadiazol-3-yl]phenyl]methyl]acetamide] | ≥ 80 | – | ≥ 80 | – | – | – |
| O=C(NCc1ccc(-c2noc(C(F)(F)F)n2)cc1)C1CCSCC1 [Compound 1.27, N-[[4-[5-(trifluoromethyl)-1,2,4-oxadiazol-3-yl]phenyl]methyl] tetrahydrothiopyran-4-carboxamide] | ≥ 80 | – | ≥ 80 | – | – | ≥ 80 |
| O=C(NCc1ccc(-c2noc(C(F)(F)F)n2)cc1)C1(c2ccc(Cl)cc2)CCC1 [Compound 1.13, 1-(4-chlorophenyl)-N-[[4-[5-(trifluoromethyl)-1,2,4-oxadiazol-3-yl]phenyl]methyl] cyclobutanecarboxamide] | ≥ 80 | – | ≥ 80 | – | – | – |
| COc1ccccc1C(=O)NCc1ccc(-c2noc(C(F)(F)F)n2)cc1 [Compound 1.6, 2-methoxy-N-[[4-[5-(trifluoromethyl)-1,2,4-oxadiazol-3-yl]phenyl]methyl]benzamide] | ≥ 80 | ≥ 80 | ≥ 80 | – | ≥ 80 | ≥ 80 |
| O=C(Cc1cccnc1)NCc1ccc(-c2noc(C(F)(F)F)n2)cc1 [Compound 1.17, 2-(3-pyridyl)-N-[[4-[5-(trifluoromethyl)-1,2,4-oxadiazol-3-yl]phenyl]methyl]acetamide] | ≥ 80 | – | ≥ 80 | – | ≥ 80 | – |
| Cc1cccc(C)c1C(=O)NCc1ccc(-c2noc(C(F)(F)F)n2)cc1 [Compound 1.19, 2,6-dimethyl-N-[[4-[5-(trifluoromethyl)-1,2,4-oxadiazol-3-yl]phenyl]methyl]benzamide] | ≥ 80 | ≥ 80 | ≥ 80 | – | – | ≥ 80 |
| COc1cccc(C2(C(=O)NCc3ccc(-c4noc(C(F)(F)F)n4)cc3)CC2)c1 [Compound 1.37, 1-(3-methoxyphenyl)-N-[[4-[5-(trifluoromethyl)-1,2,4-oxadiazol-3-yl]phenyl]methyl] cyclopropanecarboxamide] | – | – | ≥ 80 | – | ≥ 80 | – |
| O=C(Cc1ccc(Cl)cc1)NCc1ccc(-c2noc(C(F)(F)F)n2)cc1 [Compound 1.29, 2-(4-chlorophenyl)-N-[[4-[5-(trifluoromethyl)-1,2,4-oxadiazol-3-yl]phenyl]methyl]acetamide] | ≥ 80 | – | ≥ 80 | – | – | ≥ 80 |
| O=C(NCc1ccc(-c2noc(C(F)(F)F)n2)cc1)C1CCOC1 (stereo not shown) [Compound 1.18, N-[[4-[5-(trifluoromethyl)-1,2,4-oxadiazol-3-yl]phenyl]methyl] tetrahydrofuran-3-carboxamide] | ≥ 80 | ≥ 80 | ≥ 80 | – | ≥ 80 | ≥ 80 |
| O=C(NCCc1ccc(-c2noc(C(F)(F)F)n2)cc1)c1ccccc1Cl [Compound 1.99, 2-chloro-N-[2-[4-[5-(trifluoromethyl)-1,2,4-oxadiazol-3-yl]phenyl]ethyl]benzamide] | ≥ 80 | – | – | 133 to 140 | – | ≥ 80 |
